Source: publication PMC11505670, “Four newly synthesized enones induce mitochondrial-mediated apoptosis and G2/M cell cycle arrest in colorectal and cervical cancer cells” (RSC Advances, 2024)

Experiments:
Assay type in all cases: cell-based, human
[1] = system: HCT-116 cells; experiment: MTT cytotoxicity assay, HCT-116; conditions: for IC50: MTT; for percentage of cytotoxic HCT-116 cells compared to HeLa cells (fold) / percentage of cytotoxic HCT-116 cells compared to control MRC-5 cells (fold): 48 h, over the applied doses; for Cytotoxicity range: concentration range 1–100 μM; for Selectivity index (SI): IC50 healthy cells (MRC-5)/IC50 tumor cells
Experimental: (§1) To examine and compare the antiproliferative activities of four enones, the cytotoxicity of the compounds was assessed by the 3-(4,5-dimethylthiazol-2-yl)-2,5-diphenyltetrazolium bromide (MTT) assay[9] in, colon cancer cells (HCT-116), cervical cancer cell line (HeLa) and human fibroblast lung cell line (MRC-5) that was used as a healthy control cell line. After trypsinization, seeded (5 × 10^3 cells per well in 96-well plates) cells were treated with different concentrations of the investigated enones (1, 3, 10, 30, and 100 μM) during 48 and 72 h period incubation period +37 °C and 5–6.5% CO2. After the incubation period, the medium was removed and MTT solution (5 mg ml^−1) was added to the wells.
(§2) After a 3 hour incubation with the MTT solution, the resulting formazan crystals were dissolved in DMSO (67-68-5, Merck). Absorbance was subsequently measured at 595 nm using a microplate reader (Zenith 3100, Anthos Labtech Instruments). The percentage of cytotoxic cells was determined using the formula: cytotoxicity (%) = (1 − (exp. group (ABS))/(control group (ABS)) × 100). IC50 values were calculated using GraphPad Prism 10 software. The selectivity index (SI) was determined using the formula: SI?IC50 value for healthy cells/IC50 value for tumor cells.[9]

[2] = system: MRC-5 cells; experiment: MTT cytotoxicity assay, MRC-5 healthy control cells
Experimental: as §1, §2

[3] = system: HeLa cells; experiment: Annexin V-FITC/7-AAD apoptosis flow cytometry, HeLa; conditions: IC50 concentration, 48 h
Experimental: (§3) The type of cell death was assessed using flow cytometry using FITC Annexin V Apoptosis Detection Kit with 7-AAD (640922, Bio legend).[8] […] After treatment, cells were harvested, washed with PBS (resuspended in 100 μl of ice-cold 1X binding buffer), stained (20 μl of 7-AAD and 10 μl of Annexin V-FITC), and incubated in the dark for 15 min at +4 °C. After incubation, 400 μl of binding buffer was added and the samples were analyzed using flow cytometer Cytomics FC500 (Beckman Coulter, USA). Data analysis was performed using FlowJo Software and presented with histogram and dot plots.

[4] = system: HeLa cells; experiment: MTT cytotoxicity assay, HeLa; conditions: for IC50: MTT; for Selectivity index (SI): IC50 healthy cells (MRC-5)/IC50 tumor cells; for Cytotoxicity range: concentration range 1–100 μM
Experimental: as §1, §2

[5] = system: HCT-116 cells; experiment: Cell cycle analysis (PI, flow cytometry), HCT-116; conditions: IC50 concentration, 48 h; control 27.4%
Experimental: (§4) After treatment of HCT-116 and HeLa cells with enones, cells were harvested, washed with PBS, and fixed in 70% ice-cold ethanol at +4 °C overnight.[10] The cells were then pelleted, resuspended in 1 ml PBS containing RNAse A (12091021, Sigma Aldrich), and incubated for 30 min at 37 °C. A staining solution containing propidium iodide (1 mg PI per ml PBS) (B7758, Biotrend) was added to cells, followed by 15 min incubation in the dark. Cells were analyzed by flow cytometer Cytomics FC500. DNA content was determined using Flowing Software and cell cycle distribution was presented by graph (histograms).

[6] = system: Bax and Bcl-2 in HeLa cells; experiment: Flow cytometric analysis of Bax and Bcl-2 expression, HeLa; conditions: IC50 concentration, 48 h; for Bax/Bcl-2 ratio: from MFI
Experimental: (§5) Cells were washed with PBS, fixed, permeabilized using Fixation and Permeabilization Kit (eBioscience), and stained separately for Bcl-2, Bax, and cleaved-caspase-3.[8,9] Permeabilized cells were incubated with primary antibodies: mouse anti-human-Bcl-2 (DC21, sc-783, Santa Cruz Biotech. Inc.), mouse anti-human Bax (N20, sc-493, Santa Cruz Biotech. Inc.), and anti-cleaved caspase-3 (Cell signaling Technology 9661). Following antibody incubation, cells were washed and incubated with secondary Alexa 488-conjugated antibodies (ab185015, Abcam, United Kingdom) for 30 minutes. After an additional wash with PBS, flow cytometry analysis was performed.
(§6) Data were analyzed using FlowJo Software. The expression of Bcl-2 and Bax proteins was quantified as mean fluorescence intensity (MFI). The results were presented with bar graphs. Bax/Bcl-2 index was calculated using the formula […]. The percentage of cells expressing active caspase-3 (MFI) was presented in histograms.

[7] = system: HCT-116 cells; experiment: Annexin V-FITC/7-AAD apoptosis flow cytometry, HCT-116; conditions: IC50 concentration, 48 h
Experimental: as §3

[8] = system: mitochondrial membrane potential (ΔΨm) in HCT-116 cells; experiment: Mitochondrial membrane potential (ΔΨm) JC-10 analysis, HCT-116; conditions: IC50 concentration, 48 h
Experimental: (§7) Changes in the ΔΨm caused by 48 hours of enones treatment, were assessed using JC-10 dye.[10]. (Enzo Life Sciences, Farmingdale, NY, USA).
(§8) In healthy cells, JC-10 dye accumulates in the mitochondria as red fluorescent aggregates. However, upon cell damage, changes in ΔΨm occur and result in dislocation of JC-10 from the mitochondria to the cytosol and the monomerization of aggregates, shifting fluorescence from red to green. Cells were cultured in 24-well plate (3 × 10^4 cells per well) overnight in the incubator (5% CO2, 37 °C). […] Following treatment, cells were washed with warm 1xPBS and incubated with JC-10 dye (2.5 μM in warm PBS) at 5% CO2, 37 °C for 20 minutes. Cells were then washed with 1xPBS and observed using an Olympus IX50 inverted fluorescence microscope. Images were captured and analyzed using ImageJ software. The ratio of fluorescence emissions at 525 and 590 nm was used for quantification analysis.

[9] = system: active caspase-3 in HCT-116 cells; experiment: Flow cytometric analysis of active caspase-3, HCT-116; conditions: IC50 concentration, 48 h, vs control
Experimental: as §5, §6

[10] = system: cytochrome c in HCT-116 cells; experiment: Cytochrome c localization by immunofluorescence, HCT-116; conditions: IC50 concentration, 48 h
Experimental: After 48 hours of treatment, immunofluorescence analysis of cytochrome c distribution and expression in treated cells was performed using glass coverslips.[10] Following the treatment, cells were washed with PBS, fixed in 4% formaldehyde for 20 min, and permeabilized with 0.2% Tween-20. Blocking was performed using a buffer containing 0.1% Tween-20 and 10% FBS for 30 min. The cells were then incubated for 1 hour at room temperature with a monoclonal mouse anti-human cytochrome c antibody (1:100, G7421, Promega, USA,)
Subsequently, the cells were incubated for 30 minutes with a goat anti-mouse FITC (1:200, diluted in blocking buffer), washed, and images were acquired using an inverted fluorescence microscope (Olympus IX50). Image analysis was performed using ImageJ software.

[11] = system: mitochondrial membrane potential (ΔΨm) in HeLa cells; experiment: Mitochondrial membrane potential (ΔΨm) JC-10 analysis, HeLa; conditions: IC50 concentration, 48 h
Experimental: as §7, §8

[12] = system: Bax and Bcl-2 in HCT-116 cells; experiment: Flow cytometric analysis of Bax and Bcl-2 expression, HCT-116; conditions: HCT-116, IC50 concentration, 48 h, from MFI
Experimental: as §5, §6

[13] = system: active caspase-3 in HeLa cells; experiment: Flow cytometric analysis of active caspase-3, HeLa; conditions: IC50 concentration, 48 h, vs control
Experimental: as §5, §6

[14] = system: HeLa cells; experiment: Cell cycle analysis (PI, flow cytometry), HeLa; conditions: IC50 concentration, 48 h; control 29.9%
Experimental: as §4

[15] = Homo sapiens, MRC5, MRC-5, 48 h
[16] = Homo sapiens, MRC5, MRC-5, 72 h

Structure (SMILES) | total percentage of apoptotic HeLa cells [3] [%] | percentage of cytotoxic HCT-116 cells compared to HeLa cells (fold) [1] | percentage of cytotoxic HCT-116 cells compared to control MRC-5 cells (fold) [1] | Cytotoxicity range ([1]; HCT-116, 48 h) | Selectivity index (SI) ([1]; HCT-116, 48 h) | Cytotoxicity range ([1]; HCT-116, 72 h) | Selectivity index (SI) ([1]; HCT-116, 72 h) | IC50 ([1]; Homo sapiens, HCT-116, 48 h) [µM] | IC50 ([1]; Homo sapiens, HCT-116, 72 h) [µM] | % OF HCT-116 CELLS, G2/M [5] [%] | Bax/Bcl-2 ratio [6] | increase of percentage of apoptotic HCT-116 cells compared to control HCT-116 cells [7] [fold] | percentage of total apoptotic HCT-116 cells (sum of early and late) [7] [%] | IC50 [2, 15] [µM] | IC50 [2, 16] [µM] | JC10-green/JC10 red ratio in HCT-116 cells [8] | RELATIVE RATIO OF CYTOSOL CYTC TO MITOCHONDRIAL CYT C IN HCT-116 CELLS [10] | JC10-green/JC10 red ratio in HeLa cells [11] | Bax/Bcl-2 ratio [12] | % OF HELA CELLS, G2/M [14] [%] | further results
N.N.[Cl][Pt][Cl] [CP, Cisplatin, reference compound] | 42.38 | – | – | – | – | – | – | – | – | – | – | – | – | – | – | – | – | – | – | – | IC50 ([1]; HCT-116, 48 h): 13.6 µM; IC50 ([1]; HCT-116, 72 h): 7.08 ± 0.13 µM; IC50 ([2]; MRC-5, 48 h): > 30 µM; IC50 ([2]; MRC-5, 72 h): > 85 µM; IC50 ([4]; 48 h): 16.5 µM; IC50 ([4]; 72 h): 3.62 ± 0.09 µM
COc1cc(/C=C/C(C)=O)ccc1OCC(=O)O [E1, (E)-2-(2-Methoxy-4-(3-oxobut-1-en-1-yl)phenoxy)acetic acid] | 43.03 | 1.8–3.6 fold | 4.1–4.4 fold | 11.23–72.91% | 24.75 | 65.85–73.44% | 58.03 | 6.06 ± 0.96 | 1.12 ± 0.01 | 50.4 | 1.1 | 8.5 | 59.5 | > 150 | > 65 | 1.6 | 1.2 | 1.4 | 1.8 | 66.9 | Bcl-2 protein expression vs control cells ([6]; p < 0.05): decreased; MFI of active caspase-3 in HCT-116 (fold change) [9]: 2.1 fold change; MFI of active caspase-3 in HeLa (fold change) [13]: 1.9 fold change; Selectivity index (SI) ([4]; 48 h): 8.67; Cytotoxicity range ([4]; 48 h): 3.12–39.24%; Cytotoxicity range ([4]; 72 h): 39.35–61%; IC50 ([4]; Homo sapiens, 48 h): 17.3 ± 1.19 µM; IC50 ([4]; Homo sapiens, 72 h): 3.59 ± 0.03 µM
COc1cc(/C=C/C(=O)CC(C)C)ccc1OCC(=O)O [E3, (E)-2-(2-Methoxy-4-(5-methyl-3-oxohex-1-en-1-yl)phenoxy)acetic acid] | 35.63 | 2.05–2.1 fold | 4.4–6.9 fold | 11.23–75.08% | 14.71 | 66.85–70.44% | 42.68 | 6.8 ± 1.01 | 1.64 ± 0.01 | 54.1 | 0.9 | 7.4 | 51.68 | > 100 | > 70 | 1.4 | 1.1 | 1.3 | 1.6 | 58.3 | Selectivity index (SI) ([4]; 48 h): 5.50; Cytotoxicity range ([4]; 48 h): 5.47–33.95%; Selectivity index (SI) ([4]; 72 h): 17.67; Cytotoxicity range ([4]; 72 h): 40.39–59.92%; IC50 ([4]; Homo sapiens, 48 h): 18.2 ± 1.33 µM; IC50 ([4]; Homo sapiens, 72 h): 3.96 ± 0.1 µM
